Results taken from US20080255162A1, “Pyrrolyl Substituted Pyrido[2,3-D]Pyrimidin-7-Ones and Derivatives Thereof as Therapeutic Agents” (WARNER-LAMBERT COMPANY LLC, priority 2004, published 2008).

Target: T1, PI3Kγ (purified recombinant p101/p110γ protein) (Homo sapiens, UniProt P48736)
T1 construct: HA; made in house; host or cells: Spodoptera frugiperda Sf9 cells (baculovirus co-infection)
Experiment: PI3Kγ In Vitro Kinase Assay
Type: biochemical
Conditions: final ATP 20 μM, 25 μM PIP2, G protein β1/γ2 subunits, 20 minutes at room temperature
Experimental: Spodtera frugiperda cells, grown in ESF921 media, were co-infected with baculovirus expressing a glu-tagged p101 and baculovirus expressing an HA-tagged p110γ, at a 3:1 ratio of p101 baculovirus to p110γ baculovirus. Sf9 cells were grown to 1×10^7 total cells/mL in 10 L bioreactors and harvested 48-72 hours post infection. Samples of infected cells were then tested for expression of p101/p110γ PI3 kinase by immunoprecipitation and Western Blot analysis methods (see below).
To purify PI3Kγ, 4 volumes of room temperature hypotonic lysis buffer (1 mM MgCl2, 1 mM DTT, 5 mM EGTA, 1 mM Pefabloc, 0.5 μM aprotinin, 5 μM leupeptin, 2 μM pepstatin, 5 μM E64, pH 8) per gram of cell paste, was poured onto frozen cell pellets with stirring, then lysed in a nitrogen “bomb” at 400 psi (599HC T316, Parr Instrument Co, Moline, Ill.). NaCl was added to 150 mM, and sodium cholate was added to 1% and mixed for another 45 minutes. The lysates were clarified by centrifugation for 25 minutes at 14,000 rpm. The lysates were then loaded over anti-glu-linked Protein-G Sepaharose beads (Covance Research Products, Richmond, Calif.) using 20 mL resin/50 g cell paste. The column was washed with 15 volumes of wash buffer (1 mM DTT, 0.2 mM EGTA, 1 mM Pefabloc, 0.5 μM aprotinin, 5 μM leupeptin, 2 μM pepstatin, 5 μM E64, 150 mM NaCl, 1% sodium cholate, pH 8). PI3Kγ was eluted with 6 column volumes of wash buffer that contain 100 μg/mL of a peptide that competes for binding of the glu tag. The column fractions with the eluted protein (determined by taking OD280 readings) were collected and dialyzed in 0.2 mM EGTA, 1 mM DTT, 1 mM Pefabloc, 5 μM leupeptin, 0.5% sodium cholate, 150 mM NaCl, and 50% glycerol, pH 8. The fractions were stored at −80° C. until further use.
Spodtera frugiperda cells were coinfected with baculovirus expressing a glu-tagged G protein β1 and baculovirus expressing a G protein β2, at a 1:1 ratio of glu-tagged G protein β1 baculovirus to G protein β2 baculovirus. Sf9 cells are grown in 10 L bioreactors and harvested 48-72 hours post infection. Samples of infected cells were tested for G protein β1/β2 expression by Western Blot analysis, as described below. Cell lysates were homogenized and loaded onto a column of glu-tagged beads as in Biological Example 1 and competed off the column with a glu peptide and processed as described in Biological Example 1.
The inhibitory properties of the compounds in Table 1 were assayed in an in vitro PI3K assay. In a 96-well polypropylene plate, each well was spotted with 2 μL of 50 times the desired final concentration of compound in DMSO. Purified recombinant p101/p110γ protein (0.03 μg; ˜2.7 nM) and G protein β1/γ2 subunits (0.09 μg; ˜57.7 nM) for each reaction was combined in the assay buffer (30 mM HEPES, 100 mM NaCl, 1 mM EGTA, and 1 mM DTT). ATP and [γ-^32P-ATP] (0.09 μCi) were added to this mixture so that the final ATP concentration in the reaction was 20 μM. Lipid micelles were formed by sonicating phosphatidylinositol-4,5-diphosphate (PIP2), phosphatidylethanolamine (PE), and Na-cholate in the assay buffer for 10 minutes, adding MgCl2 and incubating on ice for 20 minutes, for final concentrations of 25 μM PIP2, 300 μM PE, 0.02% Na-cholate, and 10 mM MgCl2 in the reaction. The reactions were started by adding equal volumes lipid and enzyme mixture in a total volume of 50 μL, allowed to run for 20 minutes at room temperature, and stopped with 100 μL 75 mM H3PO4. The lipid product was transferred to a glass fiber filter plate and washed with 75 mM H3PO4 several times. The presence of radioactive lipid product (PIP3) was measured by adding Wallac Optiphase mix to each well and counting in a Wallac 1450 Trilux plate reader (PerkinElmer Life Sciences Inc., Boston, Mass. 02118). The IC50 for each compound tested is reported in μM in the Table 2: […]

T1 sequence (P48736 whole entry, species assumed): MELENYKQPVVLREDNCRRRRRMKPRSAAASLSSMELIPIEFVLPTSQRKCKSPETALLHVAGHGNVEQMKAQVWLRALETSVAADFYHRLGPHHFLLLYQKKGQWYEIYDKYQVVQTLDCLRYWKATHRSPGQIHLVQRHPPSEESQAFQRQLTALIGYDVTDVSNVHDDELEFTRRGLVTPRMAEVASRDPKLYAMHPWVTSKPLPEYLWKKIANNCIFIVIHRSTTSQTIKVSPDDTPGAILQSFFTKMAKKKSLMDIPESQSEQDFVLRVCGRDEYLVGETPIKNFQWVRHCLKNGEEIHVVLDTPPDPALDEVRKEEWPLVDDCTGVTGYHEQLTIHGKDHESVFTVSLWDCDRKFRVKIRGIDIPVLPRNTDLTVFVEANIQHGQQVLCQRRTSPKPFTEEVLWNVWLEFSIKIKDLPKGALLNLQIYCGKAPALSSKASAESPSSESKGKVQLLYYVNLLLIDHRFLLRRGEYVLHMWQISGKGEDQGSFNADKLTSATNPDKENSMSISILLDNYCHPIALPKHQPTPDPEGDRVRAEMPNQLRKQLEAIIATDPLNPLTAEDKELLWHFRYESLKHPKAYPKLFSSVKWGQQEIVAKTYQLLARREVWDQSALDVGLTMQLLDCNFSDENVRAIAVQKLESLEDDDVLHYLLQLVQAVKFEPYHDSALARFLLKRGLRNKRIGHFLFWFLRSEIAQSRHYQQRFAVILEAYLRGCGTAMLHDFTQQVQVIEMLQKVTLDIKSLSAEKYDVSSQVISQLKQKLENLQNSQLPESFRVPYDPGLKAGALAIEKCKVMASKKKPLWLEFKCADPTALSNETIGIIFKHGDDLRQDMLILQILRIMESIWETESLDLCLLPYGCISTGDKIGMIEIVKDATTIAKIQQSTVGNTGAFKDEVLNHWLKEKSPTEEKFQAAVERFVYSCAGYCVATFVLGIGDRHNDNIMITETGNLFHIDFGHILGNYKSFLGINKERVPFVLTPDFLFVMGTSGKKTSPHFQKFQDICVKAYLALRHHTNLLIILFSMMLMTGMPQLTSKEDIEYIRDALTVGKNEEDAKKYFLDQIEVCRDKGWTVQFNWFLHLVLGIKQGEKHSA
T1 sequence (Q8WYR1 whole entry partner, species assumed): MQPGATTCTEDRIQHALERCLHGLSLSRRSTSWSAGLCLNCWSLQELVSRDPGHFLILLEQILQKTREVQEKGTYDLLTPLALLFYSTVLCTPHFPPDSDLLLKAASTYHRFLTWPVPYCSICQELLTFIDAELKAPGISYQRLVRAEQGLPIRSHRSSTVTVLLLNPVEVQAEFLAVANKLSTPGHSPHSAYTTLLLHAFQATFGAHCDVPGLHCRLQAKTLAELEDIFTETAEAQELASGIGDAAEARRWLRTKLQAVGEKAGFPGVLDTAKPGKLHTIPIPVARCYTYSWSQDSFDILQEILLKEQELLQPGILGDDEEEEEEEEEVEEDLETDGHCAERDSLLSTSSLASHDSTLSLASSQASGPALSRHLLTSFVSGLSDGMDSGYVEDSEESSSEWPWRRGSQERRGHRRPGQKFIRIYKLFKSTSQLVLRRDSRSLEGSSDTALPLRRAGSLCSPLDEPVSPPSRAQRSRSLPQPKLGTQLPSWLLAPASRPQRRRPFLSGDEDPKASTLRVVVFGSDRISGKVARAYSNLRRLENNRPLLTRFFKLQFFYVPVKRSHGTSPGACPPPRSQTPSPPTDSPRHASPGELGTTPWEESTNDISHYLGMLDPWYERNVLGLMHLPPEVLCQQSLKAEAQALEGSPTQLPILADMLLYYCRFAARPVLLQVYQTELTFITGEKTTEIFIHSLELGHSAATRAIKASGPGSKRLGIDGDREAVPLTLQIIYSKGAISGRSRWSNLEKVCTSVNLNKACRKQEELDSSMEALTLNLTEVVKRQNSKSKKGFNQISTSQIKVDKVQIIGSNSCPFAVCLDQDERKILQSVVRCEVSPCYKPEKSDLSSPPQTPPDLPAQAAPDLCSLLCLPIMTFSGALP

Structure (SMILES)	IC50
COc1ccc(Cn2c(=O)c(C)cc3c(C)nc(Nc4cc(C(=O)O)n(C)c4)nc32)cc1 [Example 36, 4-[8-(4-Methoxy-benzyl)-4,6-dimethyl-7-oxo-7,8-dihydro-pyrido[2,3-d]pyrimidin-2-ylamino]-1-methyl-1H-pyrrole-2-carboxylic acid]	47 nM
CCOC(=O)c1cc(Nc2nc(C)c3cc(F)c(=O)n(C4CCCC4)c3n2)cn1Cc1cccnc1 [Example 12, 4-(8-Cyclopentyl-6-fluoro-4-methyl-7-oxo-7,8-dihydro-pyrido[2,3-d]pyrimidin-2-ylamino)-1-pyridin-3-ylmethyl-1H-pyrrole-2-carboxylic acid ethyl ester]	4 nM
Cc1nc(Nc2cc(C(=O)O)n(C)c2)nc2c1cc(-c1cccc(OCc3ccccc3)c1)c(=O)n2Cc1ccc(F)cc1 [Example 35, 4-[6-(3-Benzyloxy-phenyl)-8-(4-fluoro-benzyl)-4-methyl-7-oxo-7,8-dihydro-pyrido[2,3-d]pyrimidin-2-ylamino]-1-methyl-1H-pyrrole-2-carboxylic acid]	340 nM
COC(=O)c1cc(Nc2nc(C)c3cc(Cl)c(=O)n(C4CCCC4)c3n2)cn1C [Example 29, 4-(6-Chloro-8-cyclopentyl-4-methyl-7-oxo-7,8-dihydro-pyrido[2,3-d]pyrimidin-2-ylamino)-1-methyl-1H-pyrrole-2-carboxylic acid methyl ester]	6 nM
COC(=O)c1cc(Nc2nc(C)c3ccc(=O)n(C4CCC4)c3n2)cn1C [Example 4, 4-(8-Cyclobutyl-4-methyl-7-oxo-7,8-dihydro-pyrido[2,3-d]pyrimidin-2-ylamino)-1-methyl-1H-pyrrole-2-carboxylic acid methyl ester]	13 nM
CCc1nc(Nc2cc(C(=O)OC)n(C)c2)nc2c1ccc(=O)n2C1CCCCCC1 [Example 14, 4-(8-Cycloheptyl-4-ethyl-7-oxo-7,8-dihydro-pyrido[2,3-d]pyrimidin-2-ylamino)-1-methyl-1H-pyrrole-2-carboxylic acid methyl ester]	1440 nM
COC(=O)c1cc(Nc2nc(C)c3cc(F)c(=O)n(C4CCC(OC)CC4)c3n2)cn1C (stereo not shown) [Example 11, 4-[6-Fluoro-8-(4-methoxy-cyclohexyl)-4-methyl-7-oxo-7,8-dihydro-pyrido[2,3-d]pyrimidin-2-ylamino]-1-methyl-1H-pyrrole-2-carboxylic acid methyl ester]	5 nM
Cc1nc(Nc2ccn(CC(=O)O)c2)nc2c1ccc(=O)n2C1CCCCCC1 [Example 23, [3-(8-Cycloheptyl-4-methyl-7-oxo-7,8-dihydro-pyrido[2,3-d]pyrimidin-2-ylamino)-pyrrol-1-yl]-acetic acid]	1080 nM
Cc1nc(Nc2cc(C(=O)O)n(C)c2)nc2c1ccc(=O)n2C1CCCCCC1 [Example 15, 4-(8-Cycloheptyl-4-methyl-7-oxo-7,8-dihydro-pyrido[2,3-d]pyrimidin-2-ylamino)-1-methyl-1H-pyrrole-2-carboxylic acid]	33 nM
CCn1c(=O)c(Cl)cc2c(C)nc(Nc3cc(C(=O)OC)n(C)c3)nc21 [Example 30, 4-(6-Chloro-8-ethyl-4-methyl-7-oxo-7,8-dihydro-pyrido[2,3-d]pyrimidin-2-ylamino)-1-methyl-1H-pyrrole-2-carboxylic acid methyl ester]	2 nM
CCOC(=O)c1cc(Nc2nc(C)c3cc(F)c(=O)n(C4CCCC4)c3n2)cn1C(C)c1ccccc1 (stereo not shown) [Example 13, 4-(8-Cyclopentyl-6-fluoro-4-methyl-7-oxo-7,8-dihydro-pyrido[2,3-d]pyrimidin-2-ylamino)-1-(1-phenyl-ethyl)-1H-pyrrole-2-carboxylic acid ethyl ester]	160 nM
COC(=O)c1cc(Nc2nc(C)c3ccc(=O)n(CCC4CC4)c3n2)cn1C [Example 8, 4-[8-(2-Cyclopropyl-ethyl)-4-methyl-7-oxo-7,8-dihydro-pyrido[2,3-d]pyrimidin-2-ylamino]-1-methyl-1H-pyrrole-2-carboxylic acid methyl ester]	12 nM
Cc1nc(Nc2cc(C(=O)O)n(C)c2)nc2c1ccc(=O)n2C1CCCCC1 [Example 38, 4-[8-Cyclohexyl-4-methyl-7-oxo-7,8-dihydro-pyrido[2,3-d]pyrimidin-2-ylamino]-1-methyl-1H-pyrrole-2-carboxylic acid]	21 nM
Cc1nc(Nc2cc(C(=O)O)n(C)c2)nc2c1cc(F)c(=O)n2CC1CCOCC1 [Example 26, 4-[6-Fluoro-4-methyl-7-oxo-8-(tetrahydro-pyran-4-ylmethyl)-7,8-dihydro-pyrido[2,3-d]pyrimidin-2-ylamino]-1-methyl-1H-pyrrole-2-carboxylic acid]	25 nM
COCCn1c(=O)c(-c2cccc(OCc3ccccc3)c2)cc2c(C)nc(Nc3cc(C(=O)OC)n(C)c3)nc21 [Example 34, 4-[6-(3-Benzyloxy-phenyl)-8-(2-methoxy-ethyl)-4-methyl-7-oxo-7,8-dihydro-pyrido[2,3-d]pyrimidin-2-ylamino]-1-methyl-1H-pyrrole-2-carboxylic acid methyl ester]	305 nM
Cc1nc(Nc2cc(C(=O)O)n(C(C)C)c2)nc2c1ccc(=O)n2C1CCCCCC1 [Example 22, 4-(8-Cycloheptyl-4-methyl-7-oxo-7,8-dihydro-pyrido[2,3-d]pyrimidin-2-ylamino)-1-isopropyl-1H-pyrrole-2-carboxylic acid]	35 nM
Cc1nc(Nc2cc(C(=O)O)n(C)c2)nc2c1cc(F)c(=O)n2C1CCOCC1 [Example 25, 4-[6-Fluoro-4-methyl-7-oxo-8-(tetrahydro-pyran-4-yl)-7,8-dihydro-pyrido[2,3-d]pyrimidin-2-ylamino]-1-methyl-1H-pyrrole-2-carboxylic acid]	40 nM
COc1ccc(Cn2c(=O)c(Br)cc3c(C)nc(Nc4cc(C(=O)O)n(C)c4)nc32)cc1 [Example 33, 4-[6-Bromo-8-(4-methoxy-benzyl)-4-methyl-7-oxo-7,8-dihydro-pyrido[2,3-d]pyrimidin-2-ylamino]-1-methyl-1H-pyrrole-2-carboxylic acid]	17 nM
COC1CCC(n2c(=O)c(F)cc3c(C)nc(Nc4cc(C(=O)O)n(C)c4)nc32)CC1 (stereo not shown) [Example 27, 4-[6-Fluoro-8-(4-methoxy-cyclohexyl)-4-methyl-7-oxo-7,8-dihydro-pyrido[2,3-d]pyrimidin-2-ylamino]-1-methyl-1H-pyrrole-2-carboxylic acid]	19 nM
COC(=O)c1cc(Nc2nc(C)c3cc(F)c(=O)n(C4CCCC4)c3n2)cn1C [Example 9, 4-(8-Cyclopentyl-6-fluoro-4-methyl-7-oxo-7,8-dihydro-pyrido[2,3-d]pyrimidin-2-ylamino)-1-methyl-1H-pyrrole-2-carboxylic acid methyl ester]	12 nM
Cc1nc(Nc2cc(C(=O)O)n(C(C)c3ccccc3)c2)nc2c1cc(F)c(=O)n2C1CCCC1 (stereo not shown) [Example 28, 4-(8-Cyclopentyl-6-fluoro-4-methyl-7-oxo-7,8-dihydro-pyrido[2,3-d]pyrimidin-2-ylamino)-1-(1-phenyl-ethyl)-1H-pyrrole-2-carboxylic acid]	15 nM
COC(=O)c1cc(Nc2nc(C)c3ccc(=O)n(C4CCCCC4)c3n2)cn1C [Example 6, 4-(8-Cyclohexyl-4-methyl-7-oxo-7,8-dihydro-pyrido[2,3-d]pyrimidin-2-ylamino)-1-methyl-1H-pyrrole-2-carboxylic acid methyl ester]	4 nM
